Source: US20240262865A1, “Calcium independent phosphatidylserine binding compounds for detecting phosphatidylserine positive cells” (priority 2023, published 2024)
BODIPY = fluorogenic core (…diaza-s-indacene), attached to Trp by a spacer-free C—C linkage

B1: Annexin V: recombinant protein, PS binding agent binding PS in the presence of calcium; used as Alexa 647 conjugate (protein, UniProt P08758 2-320, looked up)
Annexin A5: AQVLRGTVTDFPGFDERADAETLRKAMKGLGTDEESILTLLTSRSNAQRQEISAAFKTLFGRDLLDDLKSELTGKFEKLIVALMKPSRLYDAYELKHALKGAGTNEKVLTEIIASRTPEELRAIKQVYEEEYGSSLEDDVVGDTSGYYQRMLVVLLQANRDPDAGIDEAQVEQDAQALFQAGELKWGTDEEKFITIFGTRSVSHLRKVFDKYMTISGFQIEETIDRETSGNLEQLLLAVVKSIRSIPAYLAETLYYAMKGAGTDDHTLIRVMVSRSEIDLFNIRKEFRKNFATSLYSMIKGDTSGDYKKALLLLCGEDD
modifications: Alexa 647 label
notes: used as Alexa 647 conjugate

Key:
PS positive cells [1] = experiment: Flow cytometry staining of PS positive cells on one day old mouse thymocytes, side by side with Apotracker Green and Annexin V; type: cell-based; details: one day old C57BL/6 mouse thymocytes, Atto 647 Item-2 28 pM/test and Apotracker 400 nM/test in PBS without Ca2+, Alexa 647 Annexin V in Annexin V binding buffer, Sytox Blue
Description: Whether an agent is considered to be a PS binding agent or to have a PS binding activity, it can be determined by using a flow cytometer to detect the PS binding activity of said agent which has been illustrated in the art. Thereby, PS positive cells can be used in such an assay, wherein the number of stained cells may be compared to the reference agent Apotracker Green and/or Annexin V, in accordance with the present invention.
To validate the Atto 647 Item-2 by flow cytometry, one day old C57BLU6 mouse thymocytes were side by side incubated with 28 pM/test of Atto 647 Item-2 and Sytox Blue or 400 nM/test of Apotracker and Sytox Blue in PBS without Ca^2+ or 5 μLtest of Alexa 647 Annexin V and of Sytox Blue in Annexin V binding buffer for 15 minutes at room temperature, then the cells were analyzed with NovoCyte Quanteon flow cytometry without wash. Debris were gated out based on cell density plot in a lower level of forward scatter. The two-parameter density plots show Atto 647 Item-2 or Apotracker Green or Annexin V versus Sytox Blue. Sytox Blue is an impermeant blue-emitting nucleic acid indicator which is used for indicating the dead cells. Sytox Blue was used at 20 nM/test in herein.
The cells were analyzed with NovoCyte Quanteon flow cytometry without wash.

PS positive cells [2] = experiment: Flow cytometry of Atto 647 Item-2 stained U937 cells before and after 2% PFA fixation; type: cell-based; details: U937 cells in PBS without Ca2+
Experimental: In order to validate if the PS positive cells stained with Atto 647 Item-2 are fixable, the fresh and 2 days IL-4 stimulated U937 cells were simultaneously stained with 28 pM/test of Atto 647 Item-2 and 20 nM of Sytox Blue, then the cells were split into two sets. One set of cells were analyzed with flow cytometry right after staining without wash, the other set of cells were fixed by adding 16% of Paraformaldehyde (PFA) to the final concentration at 2% PFA for 10 minutes at room temperature followed by centrifugation at 350 g for 5 minutes. Then the cells were resuspended in PBS without Ca^2+. The fresh cells and stimulated cells with or without fixation were analyzed on day 0 and day 2 respectively. The cells were analyzed with NovoCyte Quanteon flow cytometry without wash.

Molecule	staining pattern and frequencies of PS positive dying cells and dead cells (PS positive cells [1])	calcium dependence of PS binding (PS positive cells [2])
Apotracker Green: cyclic peptide of SEQ ID NO: 1 [RKKWFW(BODIPY)G]; calcium-independent PS binding agent, commercial name Apotracker Green (cyclo(RKKWFW(BODIPY)G)) [reference compound]	comparable to each other	
Item-2: PS binding compound derivative comprising SEQ ID NO: 2 [RKKWFWC], head-to-tail cyclized (head-to-tail cyclized)		Ca^2+ independent
B1	comparable to each other	
